The text below walks through data of PubChem BioAssay (NCI).

Among the test systems are HCT-116 colon; HT29 colon; SF-268 CNS; SNB-75 CNS; A498 renal; EKVX NSCLC; RXF 393 renal; HOP-62 NSCLC; HS 578T breast; MCF7 breast.
Assay in all cases: NCI-60 cell line screen, 48 h

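Each compound was tested at five concentrations against cells in 96-well plates for 48 hours. GI50: concentration for 50% inhibition of growth. Definition used: TGI = concentration required for complete inhibition of growth.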

Take `O=[N+]([O-])c1ccc(/C=C\c2ccc3c(c2)OCO3)c([N+](=O)[O-])c1`: the TGI in the test with HCT-116 colon came to 21.4 µM; in the test on HT29 colon it was 40.3 µM; in the test with SF-268 CNS, 58.5 µM; with SNB-75 CNS, 31.5 µM; in the test with A498 renal, 46.7 µM; with EKVX NSCLC, 28.1 µM. The TGI came out at 7.76 µM in the test on RXF 393 renal, 69 µM in the test with HOP-62 NSCLC, 38.5 µM in the test with HS 578T breast and 8.58 µM in the test on MCF7 breast.

For the compound `CCN(CCNc1ccc(C)c2sc3cc(Cl)ccc3c(=O)c12)CC(C)(C)O`, the GI50 in the test on HCT-116 colon is 4.94 µM; with HT29 colon, 2 µM; in the test on SF-268 CNS, 16.5 µM; with SNB-75 CNS, 3.31 µM; in the test with A498 renal, 3.47 µM; in the test on EKVX NSCLC, 3.41 µM. Further, the GI50 was 2.3 µM in the test with RXF 393 renal, 3.87 µM in the test with HOP-62 NSCLC, 5.01 µM in the test on HS 578T breast and 11.7 µM with MCF7 breast. The TGI came out at 18.2 µM with HCT-116 colon; 4.86 µM in the test on HT29 colon; 69.4 µM in the test with SF-268 CNS; 16.8 µM with SNB-75 CNS; 14.9 µM in the test with A498 renal; 21.6 µM in the test with EKVX NSCLC. The TGI with RXF 393 renal stood at 5.4 µM; with HOP-62 NSCLC, 16.1 µM; with HS 578T breast, 21.2 µM; in the test with MCF7 breast it was 26.9 µM.

Turning to `Cc1ccccc1CNc1c2ccccc2nc2ccccc12`, the GI50 was 1.11 µM in the test with HCT-116 colon; 1.97 µM in the test with HT29 colon; 2.67 µM in the test with SF-268 CNS; 1.7 µM in the test on SNB-75 CNS; 1.42 µM with A498 renal; 2.43 µM in the test on EKVX NSCLC. Also, the GI50 in the test on RXF 393 renal is 1.63 µM; in the test with HOP-62 NSCLC, 3.02 µM; with HS 578T breast it was 2.34 µM; with MCF7 breast it was 1.84 µM. Further, the TGI in the test on HCT-116 colon is 8.31 µM; with HT29 colon it was 10 µM; in the test on SF-268 CNS, 9.33 µM; in the test on SNB-75 CNS, 8.36 µM; with A498 renal, 2.96 µM; in the test on EKVX NSCLC it was 8.02 µM. Also, the TGI with RXF 393 renal worked out at 3.14 µM; in the test on HOP-62 NSCLC, 14.6 µM; in the test on HS 578T breast, 5.99 µM; in the test on MCF7 breast it was 4.78 µM.

Take `Cc1n(Cc2ccc3ccccc3n2)cc[n+]1Cc1ccc2ccccc2c1`: the GI50 in the test on HCT-116 colon is 0.61 µM; in the test with HT29 colon it was 0.454 µM; in the test on SF-268 CNS, 0.784 µM; in the test with SNB-75 CNS it was 0.322 µM; in the test on A498 renal, 1.84 µM; with EKVX NSCLC, 2.17 µM. For the same compound, the GI50 is 3.59 µM with RXF 393 renal, 1.79 µM in the test on HOP-62 NSCLC, 1.18 µM with HS 578T breast and 0.526 µM in the test on MCF7 breast. Further, the TGI in the test on HCT-116 colon worked out at 10.4 µM; with HT29 colon, 9.61 µM; in the test on SF-268 CNS, 14 µM; in the test on SNB-75 CNS, 3.39 µM; in the test with A498 renal, 10.2 µM; with EKVX NSCLC, 21 µM. Besides, the TGI was found to be 17.4 µM in the test on RXF 393 renal, 7.36 µM in the test on HOP-62 NSCLC, 9.72 µM in the test with HS 578T breast and 6.08 µM with MCF7 breast.

With `COc1ncc2cc1NS(=O)(=O)c1cccc(c1)C(=O)NCC1=CC=C(S1)c1ncnc3c1SC2=C3C`, the GI50 is 0.277 µM in the test on HCT-116 colon; 0.201 µM in the test with HT29 colon; 0.37 µM with SF-268 CNS; 0.0176 µM in the test on SNB-75 CNS; 0.188 µM in the test with A498 renal; 0.234 µM in the test on EKVX NSCLC. Also, the GI50 in the test with RXF 393 renal was 0.0721 µM; with HOP-62 NSCLC, 0.238 µM; with HS 578T breast, 0.0247 µM; with MCF7 breast, 0.104 µM. Further, the TGI with HCT-116 colon was found to be 2.85 µM; with HT29 colon, 1.74 µM; with SF-268 CNS, 11.8 µM; in the test with SNB-75 CNS it was 2.26 µM; in the test with A498 renal it was 0.548 µM; in the test with EKVX NSCLC, 2.54 µM. Also, the TGI is 0.695 µM in the test on RXF 393 renal, 4.1 µM in the test with HOP-62 NSCLC, 0.355 µM in the test with HS 578T breast and 1.62 µM in the test on MCF7 breast.

On to `CCOC(=O)c1cc2cc(OCc3ccccc3)ccc2[nH]1`, for which the GI50 in the test on HCT-116 colon was over 100 µM; in the test with HT29 colon, over 100 µM; in the test on SF-268 CNS, over 100 µM; with SNB-75 CNS, 26 µM; in the test on A498 renal it was over 100 µM; in the test on EKVX NSCLC, over 100 µM. Moreover, the GI50 with RXF 393 renal was over 100 µM; in the test on HOP-62 NSCLC it was 92.7 µM; in the test with HS 578T breast, 49.6 µM; in the test on MCF7 breast it was over 100 µM. For the same compound, the TGI in the test with HCT-116 colon, in the test with HT29 colon, with SF-268 CNS, with SNB-75 CNS, in the test on A498 renal and with EKVX NSCLC was over 100 µM each time. The TGI in the test on RXF 393 renal, with HOP-62 NSCLC, in the test with HS 578T breast and in the test on MCF7 breast was over 100 µM in each case.

Take `CCN(CC)C(=O)CCCCCn1c2ccccc2c2c3c(c4c5ccccc5[nH]c4c21)C(=O)N(O)C3=O`: the GI50 is 3.75 µM in the test with HCT-116 colon; 2.22 µM in the test with HT29 colon; 3.97 µM with SF-268 CNS; 7.71 µM in the test on SNB-75 CNS; 2.86 µM in the test on A498 renal; 10.9 µM in the test on EKVX NSCLC. For the same compound, the GI50 in the test with RXF 393 renal was 4.01 µM; in the test on HOP-62 NSCLC, 11.6 µM; in the test with HS 578T breast it was 5.05 µM; in the test with MCF7 breast, 2.94 µM. Also, the TGI with HCT-116 colon is 28.1 µM; in the test on HT29 colon it was 4.44 µM; in the test with SF-268 CNS, over 100 µM; in the test on SNB-75 CNS, over 100 µM; in the test on A498 renal, 20.3 µM; with EKVX NSCLC it was 58.4 µM. Also, the TGI in the test on RXF 393 renal was over 100 µM; in the test with HOP-62 NSCLC it was 47.8 µM; with HS 578T breast, over 100 µM; in the test on MCF7 breast, over 100 µM.

With `CCc1c(C#N)c(SC(C(N)=O)c2ccccc2)nc(N2CCC(N)CC2)c1C#N` (stereo not given), the GI50 was 13.5 µM in the test with HCT-116 colon; 14.3 µM with HT29 colon; 14.2 µM with SF-268 CNS; 11.2 µM in the test on SNB-75 CNS; 15.4 µM with A498 renal; 15.5 µM in the test with EKVX NSCLC. Moreover, the GI50 in the test on RXF 393 renal is 10.4 µM; with HOP-62 NSCLC, 15.9 µM; in the test on HS 578T breast, 14.1 µM; in the test on MCF7 breast, 13 µM. The TGI with HCT-116 colon worked out at 27.4 µM; with HT29 colon, 30.7 µM; with SF-268 CNS it was 29.2 µM; in the test with SNB-75 CNS, 24.6 µM; in the test on A498 renal, 30.4 µM; in the test with EKVX NSCLC it was 36.9 µM. The TGI in the test on RXF 393 renal came to 22.7 µM; in the test on HOP-62 NSCLC, 30.6 µM; in the test on HS 578T breast, 41.1 µM; in the test with MCF7 breast it was 26.8 µM.
